From patent US20130005733A1, “COMBINATION ANTI-CANCER THERAPY” (OSI Pharmaceuticals, LLC, priority 2010, published 2013)

Assays:
H460 NSCLC xenograft = assay: Tumor growth inhibition in vivo, xenograft; conditions: single agent
Experimental: Evaluation of tumor growth inhibition in vivo: Evaluation of tumor growth inhibition in vivo was conducted at OSI facilities with the approval of the Institutional Animal Care and Use Committee (IACUC) in an American Association for Accreditation of Laboratory Animal Care (AAALAC) accredited vivarium and in accordance with the Institute of Laboratory Animal Research (Guide for the Care and Use of Laboratory Animals, NIH, Bethesda, Md., USA). For this study, female athymic nude nu/nu CD-1 mice (6-8 wks, 20-28 g, Charles River Laboratories, Wilmington, Mass., USA) were allowed to acclimate for a minimum of one week prior to initiation of the study. To evaluate tumor growth inhibition, cells were harvested from cell culture flasks during exponential cell growth, washed twice with sterile PBS, counted and resuspended in PBS to a suitable concentration before subcutaneous implantation on the right flank of nu/nu CD-1 mice. Tumors were established to 200±50 mm^3 in size before randomization into treatment groups of 8 mice each. […]
where Tt=median tumor volume of treated at time t; T0=median tumor volume of treated at time 0; Ct=median tumor volume of control at time t; and C0=median tumor volume of control at time 0. The average TGI over the dosing period was then calculated and reported. […]

Ovcar-5 cells = assay: Caspase 3/7 Glo apoptosis assay; type: cell-based, Human; conditions: 48 hrs after treatment, OSI-027 varying doses alone or with 5 uM OSI-906
Experimental: Measurement of apoptosis: […] Cell lines were seeded at a density of 3000 cells per well in a 96-well plate. 24 hours after plating cells were dosed with varying concentrations of drug, either as a single agent or in combination. […] The caspase 3/7 activity was normalized to cell number per well, using a parallel plate treated with Cell Titer Glo (Promega Corporation, Madison, WI). Signal for each well was normalized using the following formula: Caspase 3/7 Glo luminescence units/Cell Titer Glo fraction of DMSO control. All graphs were generated using PRISM® software (Graphpad Software, San Diego, Calif.). […] A theoretical curve was calculated for combined inhibition using the equation: Ebliss=EA+EB−EA*EB, where EA and EB are the fractional inhibitions obtained by drug A alone and drug B alone at specific concentrations. […] If the experimentally measured fractional inhibition was less than Ebliss the combination was said to be synergistic. If the experimentally measured fractional inhibition was greater than Ebliss the combination was said to be antagonistic. For dose response curves, the bliss additivity was calculated for varying doses of drug A when combined with a constant dose of drug B. This allowed an assessment as to whether drug B affected the potency of drug A or shifted its intrinsic activity. […]

[1] = tested on: pPRAS40 (T246) in MDAH2774; assay: Western blot of phospho-PRAS40; type: cell-based, Human; conditions: 300 nM each agent, 2 hours
Experimental: (§1) Cell extracts were prepared by detergent lysis (50 mM Tris-HCl, pH 8.0, 150 mM NaCl, 1% NP-40, 0.5% sodium deoxycholate, 0.1% SDS, containing protease inhibitor (P8340, Sigma, St. Louis, Mo.) and phosphatase inhibitor (P5726, Sigma, St. Louis, Mo.) cocktails. The soluble protein concentration was determined by micro-BSA assay (Pierce, Rockford, Ill.). Pixel density was determined using AlphaEaseFC software (Alpha Innotech, San Leandro, Calif.). Protein immunodetection was performed by electrophoretic transfer of SDS-PAGE separated proteins to nitrocellulose, incubation with antibody, and chemiluminescent second step detection (PicoWest; Pierce, Rockford, Ill.). The antibodies included: 4E-BP1, p-4E-BP1(T37/46), PRAS40, and pPRAS40 ([…]). Antibodies were obtained from Cell Signaling Technology, Inc. (Danvers, Mass.). […] The media was removed, cells were washed two times with PBS, and cells were lysed as previously described.

[2] = tested on: IGF-1R phosphorylation in H460 lung carcinoma cells; assay: Phospho-RTK antibody array (Proteome Profiler); type: cell-based, Human; conditions: 3 uM, relative to DMSO
Text: (§2) Measurement of phosphorylated receptor tyrosine kinases: A commercially available membrane-based antibody array (Proteome Profiler Array, R&D Systems, Minneapolis, Minn.) was used to simultaneously co-immunoprecipitate 42 different receptor tyrosine kinases (RTKs) in duplicate and measure specific phospho-epitopes on each. The phospho-epitopes were detected by chemiluminescence, quantitated based on pixel density for each pair of spots and expressed relative to vehicle-treated controls. Pixel density was determined using AlphaEaseFC software (Alpha Innotech, San Leandro, Calif.).

[3] = tested on: IR phosphorylation in Ovcar-3 ovarian carcinoma cells; assay: Phospho-RTK antibody array (Proteome Profiler); type: cell-based, Human; conditions: Ovcar-3 (KRAS wt); 3 uM each agent; relative to DMSO
Text: as §2

[4] = tested on: IGF-1R phosphorylation in MDAH2774 ovarian carcinoma cells; assay: Phospho-RTK antibody array (Proteome Profiler); type: cell-based, Human; conditions: MDAH2774 (KRAS mutant); 3 uM each agent; 2 hour treatment
Text: as §2

[5] = tested on: IR phosphorylation in MDAH2774 ovarian carcinoma cells; assay: Phospho-RTK antibody array (Proteome Profiler); type: cell-based, Human; conditions: MDAH2774 (KRAS mutant); 3 uM each agent; 2 hour treatment
Text: as §2

p-4E-BP1(T37/46) = assay: Western blot of phospho-4E-BP1; type: cell-based, Human; conditions: 300 nM each agent; 2 hours
Experimental: as §1

Igrov1 = assay: Cell Titer Glo proliferation assay, ovarian cell line panel; type: cell-based, Human; conditions: Igrov1, single agent, cell viability at 72 hours
Experimental: Cell lines: Human cancer cell lines were purchased from the American Type Culture Collection (ATCC). The cell lines Ovcar-3, MDAH2774, Caov3, lgrov-1, and MDA-MB-231 were grown in media as prescribed by the ATCC, containing 10% FCS. HNSCC 1483, HNSCC 1386, HNSCC 1186 were a gift from Memorial Sloan Kettering and were cultured in 1:1 DMEM: Hams F12 with 10% FCS. Ovcar-4, Ovcar-5, and Ovcar-8 were obtained from the NCI and were grown in RPMI with 10% FCS. Measurement of proliferation: Inhibition of proliferation was measured using the Cell Titer Glo Assay (Promega Corporation, Madison, WI). Cell lines were seeded at a density of 3000 cells per well in a 96-well plate. 24 hours after plating cells were dosed with varying concentrations of drug, either as a single agent or in combination. […] Inhibition of proliferation, relative to vehicle-treated controls was expressed as a fraction of 1 and graphed using PRISM® software (Graphpad Software, San Diego, Calif.).

Ovcar3 = assay: as above; type: cell-based, Human; conditions: Ovcar3, single agent, cell viability at 72 hours
Experimental: (§3) Cell lines: Human cancer cell lines were purchased from the American Type Culture Collection (ATCC). The cell lines Ovcar-3, MDAH2774, Caov3, lgrov-1, and MDA-MB-231 were grown in media as prescribed by the ATCC, containing 10% FCS. HNSCC 1483, HNSCC 1386, HNSCC 1186 were a gift from Memorial Sloan Kettering and were cultured in 1:1 DMEM: Hams F12 with 10% FCS. Ovcar-4, Ovcar-5, and Ovcar-8 were obtained from the NCI and were grown in RPMI with 10% FCS. Measurement of proliferation: Inhibition of proliferation was measured using the Cell Titer Glo Assay (Promega Corporation, Madison, WI). Cell lines were seeded at a density of 3000 cells per well in a 96-well plate. 24 hours after plating cells were dosed with varying concentrations of drug, either as a single agent or in combination. […] Inhibition of proliferation, relative to vehicle-treated controls was expressed as a fraction of 1 and graphed using PRISM® software (Graphpad Software, San Diego, Calif.). Analysis of Synergy: The Bliss additivism model was used to classify the effect of combining OSI-027 and OSI-906 as additive, synergistic or antagonistic. A theoretical curve was calculated for combined inhibition using the equation: Ebliss=EA+EB−EA*EB, where EA and EB are the fractional inhibitions obtained by drug A alone and drug B alone at specific concentrations. Here, Ebliss is the fractional inhibition that would be expected if the combination of the two drugs was exactly additive. If the experimentally measured fractional inhibition was less than Ebliss the combination was said to be synergistic. If the experimentally measured fractional inhibition was greater than Ebliss the combination was said to be antagonistic. For dose response curves, the bliss additivity was calculated for varying doses of drug A when combined with a constant dose of drug B. This allowed an assessment as to whether drug B affected the potency of drug A or shifted its intrinsic activity. All plots were generated using Graphpad Prism software.

MDAH2774 = assay: as above; type: cell-based, Human; conditions: MDAH2774 (KRAS mutant), single agent, cell viability at 72 hours
Experimental: as §3

Ovcar-5 = assay: as above; type: cell-based, Human; conditions: Ovcar-5 (KRAS mutant), single agent, cell viability at 72 hours
Experimental: as §3

Row | Compound | tumor growth inhibition (TGI) (H460 NSCLC xenograft; OSI-027 50 mg/kg oral daily for 14 days) [%] | induction of apoptosis (caspase 3/7 activity) (Ovcar-5 cells) | inhibition of phosphor-PRAS40 [1] | phosphorylation of IGF-1R [2] | phosphorylation of IR [3] | phosphorylation of IGF-1R [4] | phosphorylation of IR [5] | phosphorylation of 4E-BP1 (p-4E-BP1(T37/46)) | sensitivity of cell line (inhibition of proliferation) (Igrov1) | sensitivity of cell line (inhibition of proliferation) (Ovcar3) | sensitivity of cell line (inhibition of proliferation) (MDAH2774) | sensitivity of cell line (inhibition of proliferation) (Ovcar-5) | tumor growth inhibition (TGI) (H460 NSCLC xenograft; OSI-906 60 mg/kg once-daily for 14 days) [%]
1 | COc1cccc2cc(-c3nc([C@H]4CC[C@H](C(=O)O)CC4)n4ncnc(N)c34)[nH]c12 [OSI-027, trans-4-[4-amino-5-(7-methoxy-1H-indol-2-yl)imidazo[5,1-f][1,2,4]triazin-7-yl]cyclohexanecarboxylic acid] | 66 | did not significantly induce apoptosis | partial inhibition | hyperphosphorylation of IGF-1R | hyperphosphorylated | increased | increased | reduced | most sensitive | most sensitive | relatively insensitive | relatively insensitive | 
2 | C[C@]1(O)C[C@@H](c2nc(-c3ccc4ccc(-c5ccccc5)nc4c3)c3c(N)nccn32)C1 [OSI-906, cis-3-[8-amino-1-(2-phenylquinolin-7-yl)-imidazo[1,5-a]pyrazin-3-yl]-1-methylcyclobutanol] |  |  | inhibits phosphor-PRAS40 to a greater degree |  | fully attenuates phosphor-IR, below the basal level | reduced | reduced | No significant decrease | among the least sensitive | among the least sensitive | most sensitive | most sensitive | 69
3 | Nc1nccn2c1c(-c1cc3cccc(Cl)c3[nH]1)nc2[C@H]1CC[C@H](C(=O)O)CC1 [OXA-01] |  |  |  | increases p-IGF-1R to a greater degree than erlotinib |  |  |  |  |  |  |  |  | 
4 | C#Cc1cccc(Nc2ncnc3cc(OCCOC)c(OCCOC)cc23)c1 [erlotinib, reference compound] |  |  |  | hyperphosphorylation of IGF-1R |  |  |  |  |  |  |  |  | 
